Assay results: US9850283B2, “Macrocyclic inhibitors of the PD-1/PD-L1 and CD80(B7-1)/PD-L1 protein/protein interactions” (BRISTOL-MYERS SQUIBB COMPANY, priority 2013, dated 2017)
Positions of bridges follow the written chain, without caps; N, C: chain ends. Non-standard residues stand in square brackets, D forms with d. Residues, ends and D or L forms follow the SMILES beside them. Ala(indol-4-yl) = N[C@@H](Cc1cccc2[nH]ccc12)C(=O)O; Tyr(3,5-Br2) = N[C@@H](Cc1cc(Br)c(O)c(Br)c1)C(=O)O; Trp(5-Cl) = N[C@@H](Cc1c[nH]c2ccc(Cl)cc12)C(=O)O; Phe(3-CF3) = N[C@@H](Cc1cccc(C(F)(F)F)c1)C(=O)O; Phe(4-CH2NH2) = NCc1ccc(C[C@H](N)C(=O)O)cc1; Tyr(3-I) = N[C@@H](Cc1ccc(O)c(I)c1)C(=O)O; Phe(3-Cl) = N[C@@H](Cc1cccc(Cl)c1)C(=O)O; Phe(4-Cl) = N[C@@H](Cc1ccc(Cl)cc1)C(=O)O; Phe(3-F) = N[C@@H](Cc1cccc(F)c1)C(=O)O; Phe(4-F) = N[C@@H](Cc1ccc(F)cc1)C(=O)O; Phe(4-Me) = Cc1ccc(C[C@H](N)C(=O)O)cc1; Phe(2-Me) = Cc1ccccc1C[C@H](N)C(=O)O; Bta = N[C@@H](Cc1csc2ccccc12)C(=O)O; NMeF = CN[C@@H](Cc1ccccc1)C(=O)O; NMeNle = CCCC[C@H](NC)C(=O)O; Sar = CNCC(=O)O

What was measured:
Human PD-L1/PD-1 = biological target: T1, Human PD-L1/PD-1 (Homo sapiens, UniProt Q9NZQ7); assay: HTRF PD-1-Ig/PD-L1-His binding assay (human PD-L1); settings: cluster symbol; read-out: HTRF IC50 cluster
T1 construct: made in house; host or cells: HEK293T
Procedure, shortened: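 Interaction of Fc-tagged soluble PD-1 with His-tagged soluble PD-L1 is monitored by time-resolved FRET. Donor is europium cryptate anti-Ig (1 nM final) and acceptor is APC anti-His (20 nM final). Assay buffer is dPBS with 0.1% BSA and 0.05% Tween-20.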

[1] = biological target: T2, LK35.2-hPD-L1 cells / PE-labeled PD-1-Ig (Homo sapiens, UniProt Q9NZQ7); assay: LK35.2-hPD-L1 cell binding high-content screening assay; assay type: cell-based; settings: cluster symbol; cell line of CBA not given (LK35.2-hPD-L1 or 293T-hPD-L1); read-out: CBA IC50 cluster
T2 construct: expressed in transfected cells; host or cells: LK35.2 mouse B cell line
Procedure, shortened: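 Compound effect on PD-1/PD-L1 binding is measured by imaging cell-associated phycoerythrin signal. Human PD-1-Ig (PE on Ig tag, 1 nM final) is applied with compound to a murine B cell line overexpressing human PD-L1 for 1 h at 37 °C in serum-containing RPMI.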

T1 sequence (Q9NZQ7 with tags, fused parts or gaps): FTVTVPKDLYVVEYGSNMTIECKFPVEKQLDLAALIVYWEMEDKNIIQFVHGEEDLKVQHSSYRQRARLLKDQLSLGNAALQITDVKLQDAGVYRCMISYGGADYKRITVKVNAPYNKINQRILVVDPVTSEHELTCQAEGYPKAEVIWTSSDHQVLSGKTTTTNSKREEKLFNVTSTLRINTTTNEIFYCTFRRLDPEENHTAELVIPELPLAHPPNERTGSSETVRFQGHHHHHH
T2 sequence (Q9NZQ7 19-290): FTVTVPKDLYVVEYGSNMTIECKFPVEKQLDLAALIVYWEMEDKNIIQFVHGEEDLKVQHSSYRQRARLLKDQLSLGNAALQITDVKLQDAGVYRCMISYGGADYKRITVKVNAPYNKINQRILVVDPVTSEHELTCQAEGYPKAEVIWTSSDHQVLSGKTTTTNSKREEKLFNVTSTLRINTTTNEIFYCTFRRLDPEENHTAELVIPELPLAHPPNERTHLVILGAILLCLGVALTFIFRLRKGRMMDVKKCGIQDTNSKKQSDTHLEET

Row | Compound | IC50 (Human PD-L1/PD-1) | IC50 [1]
1 | CCCC[C@H]1C(=O)N(C)CC(=O)N[C@@H](CC(=O)O)C(=O)N[C@@H](C(C)C)C(=O)N(C)[C@@H](Cc2ccccc2)C(=O)N[C@@H](Cc2c[nH]c3ccc(Cl)cc23)C(=O)N(C)CC(=O)N[C@@H](Cc2c[nH]c3ccccc23)C(=O)N[C@@H](Cc2ccc(O)cc2)C(=O)N[C@@H](CC(C)C)C(=O)N[C@H](C(=O)NCC(N)=O)CSCC(=O)N[C@@H](Cc2ccccc2)C(=O)N(C)[C@@H](Cc2ccccc2)C(=O)N1C [Example 3109] ({CH2CO}-F[NMeF][NMeNle][Sar]DV[NMeF][Trp(5-Cl)][Sar]WYLCG-NH2; thioether N-13) | > 30.5 nM | 4.78 to 72.9 nM
2 | CCCC[C@H]1C(=O)N(C)CC(=O)N[C@@H](CC(=O)O)C(=O)N[C@@H](C(C)C)C(=O)N(C)[C@@H](Cc2ccccc2)C(=O)N[C@@H](Cc2cccc3[nH]ccc23)C(=O)N(C)CC(=O)N[C@@H](Cc2c[nH]c3ccccc23)C(=O)N[C@@H](Cc2ccc(O)cc2)C(=O)N[C@@H](CC(C)C)C(=O)N[C@H](C(=O)NCC(N)=O)CSCC(=O)N[C@@H](Cc2ccccc2)C(=O)N(C)[C@@H](Cc2ccccc2)C(=O)N1C [Example 3110] ({CH2CO}-F[NMeF][NMeNle][Sar]DV[NMeF][Ala(indol-4-yl)][Sar]WYLCG-NH2; thioether N-13) | 6.76 to 30.3 nM | 0.158 to 4.71 nM
3 | CCCC[C@H]1C(=O)N(C)CC(=O)N[C@@H](CC(=O)O)C(=O)N[C@@H](C(C)C)C(=O)N(C)[C@@H](Cc2ccccc2)C(=O)N[C@@H](Cc2ccc(O)cc2)C(=O)N(C)CC(=O)N[C@@H](Cc2c[nH]c3ccccc23)C(=O)N[C@@H](Cc2cc(Br)c(O)c(Br)c2)C(=O)N[C@@H](CC(C)C)C(=O)N[C@H](C(=O)NCC(N)=O)CSCC(=O)N[C@@H](Cc2ccccc2)C(=O)N(C)[C@@H](Cc2ccccc2)C(=O)N1C [Example 3112] ({CH2CO}-F[NMeF][NMeNle][Sar]DV[NMeF]Y[Sar]W[Tyr(3,5-Br2)]LCG-NH2; thioether N-13) | > 30.5 nM | > 74.3 nM
4 | CCCC[C@H]1C(=O)N(C)CC(=O)N[C@@H](CC(=O)O)C(=O)N[C@@H](C(C)C)C(=O)N(C)[C@@H](Cc2ccccc2)C(=O)N[C@@H](Cc2ccc(O)cc2)C(=O)N(C)CC(=O)N[C@@H](Cc2csc3ccccc23)C(=O)N[C@@H](Cc2ccc(O)cc2)C(=O)N[C@@H](CC(C)C)C(=O)N[C@H](C(=O)NCC(N)=O)CSCC(=O)N[C@@H](Cc2ccc(Cl)cc2)C(=O)N(C)[C@@H](Cc2ccccc2)C(=O)N1C [Example 3115] ({CH2CO}-[Phe(4-Cl)][NMeF][NMeNle][Sar]DV[NMeF]Y[Sar][Bta]YLCG-NH2; thioether N-13) | 6.76 to 30.3 nM | 4.78 to 72.9 nM
5 | CCCC[C@H]1C(=O)N(C)CC(=O)N[C@@H](CC(=O)O)C(=O)N[C@@H](C(C)C)C(=O)N(C)[C@@H](Cc2ccccc2)C(=O)N[C@@H](Cc2ccc(O)cc2)C(=O)N(C)CC(=O)N[C@@H](Cc2csc3ccccc23)C(=O)N[C@@H](Cc2ccc(O)cc2)C(=O)N[C@@H](CC(C)C)C(=O)N[C@H](C(=O)NCC(N)=O)CSCC(=O)N[C@@H](Cc2ccc(F)cc2)C(=O)N(C)[C@@H](Cc2ccccc2)C(=O)N1C [Example 3116] ({CH2CO}-[Phe(4-F)][NMeF][NMeNle][Sar]DV[NMeF]Y[Sar][Bta]YLCG-NH2; thioether N-13) | 0.385 to 6.74 nM | 0.158 to 4.71 nM
6 | CCCC[C@H]1C(=O)N(C)CC(=O)N[C@@H](CC(=O)O)C(=O)N[C@@H](C(C)C)C(=O)N(C)[C@@H](Cc2ccccc2)C(=O)N[C@@H](Cc2ccc(CN)cc2)C(=O)N(C)CC(=O)N[C@@H](Cc2csc3ccccc23)C(=O)N[C@@H](Cc2ccc(O)cc2)C(=O)N[C@@H](CC(C)C)C(=O)N[C@H](C(=O)NCC(N)=O)CSCC(=O)N[C@@H](Cc2ccc(F)cc2)C(=O)N(C)[C@@H](Cc2ccccc2)C(=O)N1C [Example 3120] ({CH2CO}-[Phe(4-F)][NMeF][NMeNle][Sar]DV[NMeF][Phe(4-CH2NH2)][Sar][Bta]YLCG-NH2; thioether N-13) | 6.76 to 30.3 nM | 0.158 to 4.71 nM

Results, then the compound that gave them:

Row | IC50 (Human PD-L1/PD-1) | IC50 [1] | Compound
7 | > 30.5 nM | > 74.3 nM | CCCC[C@H]1C(=O)N(C)CC(=O)N[C@@H](CC(=O)O)C(=O)N[C@@H](C(C)C)C(=O)N(C)[C@@H](Cc2ccccc2)C(=O)N[C@@H](Cc2ccc(O)cc2)C(=O)N(C)CC(=O)N[C@@H](Cc2c[nH]c3ccccc23)C(=O)N[C@@H](Cc2ccc(O)cc2)C(=O)N[C@@H](CC(C)C)C(=O)N[C@H](C(=O)NCC(N)=O)CSCC(=O)N[C@@H](Cc2ccccc2C)C(=O)N(C)[C@@H](Cc2ccccc2)C(=O)N1C [Example 3105] ({CH2CO}-[Phe(2-Me)][NMeF][NMeNle][Sar]DV[NMeF]Y[Sar]WYLCG-NH2; thioether N-13)
8 | > 30.5 nM | 4.78 to 72.9 nM | CCCC[C@H]1C(=O)N(C)CC(=O)N[C@@H](CC(=O)O)C(=O)N[C@@H](C(C)C)C(=O)N(C)[C@@H](Cc2ccccc2)C(=O)N[C@@H](Cc2ccc(O)cc2)C(=O)N(C)CC(=O)N[C@@H](Cc2c[nH]c3ccccc23)C(=O)N[C@@H](Cc2ccc(O)cc2)C(=O)N[C@@H](CC(C)C)C(=O)N[C@H](C(=O)NCC(N)=O)CSCC(=O)N[C@@H](Cc2cccc(C(F)(F)F)c2)C(=O)N(C)[C@@H](Cc2ccccc2)C(=O)N1C [Example 3106] ({CH2CO}-[Phe(3-CF3)][NMeF][NMeNle][Sar]DV[NMeF]Y[Sar]WYLCG-NH2; thioether N-13)
9 | 6.76 to 30.3 nM | 4.78 to 72.9 nM | CCCC[C@H]1C(=O)N(C)CC(=O)N[C@@H](CC(=O)O)C(=O)N[C@@H](C(C)C)C(=O)N(C)[C@@H](Cc2ccccc2)C(=O)N[C@@H](Cc2ccc(O)cc2)C(=O)N(C)CC(=O)N[C@@H](Cc2c[nH]c3ccccc23)C(=O)N[C@@H](Cc2ccc(O)cc2)C(=O)N[C@@H](Cc2ccc(C)cc2)C(=O)N[C@H](C(=O)NCC(N)=O)CSCC(=O)N[C@@H](Cc2ccccc2)C(=O)N(C)[C@@H](Cc2ccccc2)C(=O)N1C [Example 3107] ({CH2CO}-F[NMeF][NMeNle][Sar]DV[NMeF]Y[Sar]WY[Phe(4-Me)]CG-NH2; thioether N-13)
10 | > 30.5 nM | 4.78 to 72.9 nM | CCCC[C@H]1C(=O)N(C)CC(=O)N[C@@H](CC(=O)O)C(=O)N[C@@H](C(C)C)C(=O)N(C)[C@@H](Cc2ccccc2)C(=O)N[C@@H](Cc2ccc(O)c(I)c2)C(=O)N(C)CC(=O)N[C@@H](Cc2c[nH]c3ccccc23)C(=O)N[C@@H](Cc2ccc(O)cc2)C(=O)N[C@@H](CC(C)C)C(=O)N[C@H](C(=O)NCC(N)=O)CSCC(=O)N[C@@H](Cc2ccccc2)C(=O)N(C)[C@@H](Cc2ccccc2)C(=O)N1C [Example 3111] ({CH2CO}-F[NMeF][NMeNle][Sar]DV[NMeF][Tyr(3-I)][Sar]WYLCG-NH2; thioether N-13)
11 | 6.76 to 30.3 nM | 4.78 to 72.9 nM | CCCC[C@H]1C(=O)N(C)CC(=O)N[C@@H](CC(=O)O)C(=O)N[C@@H](C(C)C)C(=O)N(C)[C@@H](Cc2ccccc2)C(=O)N[C@@H](Cc2cc(Br)c(O)c(Br)c2)C(=O)N(C)CC(=O)N[C@@H](Cc2c[nH]c3ccccc23)C(=O)N[C@@H](Cc2ccc(O)cc2)C(=O)N[C@@H](CC(C)C)C(=O)N[C@H](C(=O)NCC(N)=O)CSCC(=O)N[C@@H](Cc2ccccc2)C(=O)N(C)[C@@H](Cc2ccccc2)C(=O)N1C [Example 3113] ({CH2CO}-F[NMeF][NMeNle][Sar]DV[NMeF][Tyr(3,5-Br2)][Sar]WYLCG-NH2; thioether N-13)
12 | 6.76 to 30.3 nM | 4.78 to 72.9 nM | CCCC[C@H]1C(=O)N(C)CC(=O)N[C@@H](CC(=O)O)C(=O)N[C@@H](C(C)C)C(=O)N(C)[C@@H](Cc2ccccc2)C(=O)N[C@@H](Cc2ccc(O)cc2)C(=O)N(C)CC(=O)N[C@@H](Cc2csc3ccccc23)C(=O)N[C@@H](Cc2ccc(O)cc2)C(=O)N[C@@H](CC(C)C)C(=O)N[C@H](C(=O)NCC(N)=O)CSCC(=O)N[C@@H](Cc2cccc(Cl)c2)C(=O)N(C)[C@@H](Cc2ccccc2)C(=O)N1C [Example 3114] ({CH2CO}-[Phe(3-Cl)][NMeF][NMeNle][Sar]DV[NMeF]Y[Sar][Bta]YLCG-NH2; thioether N-13)
13 | 6.76 to 30.3 nM | 4.78 to 72.9 nM | CCCC[C@H]1C(=O)N(C)CC(=O)N[C@@H](CC(=O)O)C(=O)N[C@@H](C(C)C)C(=O)N(C)[C@@H](Cc2ccccc2)C(=O)N[C@@H](Cc2ccc(O)cc2)C(=O)N(C)CC(=O)N[C@@H](Cc2csc3ccccc23)C(=O)N[C@@H](Cc2ccc(O)cc2)C(=O)N[C@@H](CC(C)C)C(=O)N[C@H](C(=O)NCC(N)=O)CSCC(=O)N[C@@H](Cc2cccc(F)c2)C(=O)N(C)[C@@H](Cc2ccccc2)C(=O)N1C [Example 3117] ({CH2CO}-[Phe(3-F)][NMeF][NMeNle][Sar]DV[NMeF]Y[Sar][Bta]YLCG-NH2; thioether N-13)
14 | 6.76 to 30.3 nM | 4.78 to 72.9 nM | CCCC[C@H]1C(=O)N(C)CC(=O)N[C@@H](CC(=O)O)C(=O)N[C@@H](C(C)C)C(=O)N(C)[C@@H](Cc2ccccc2)C(=O)N[C@@H](Cc2ccc(CN)cc2)C(=O)N(C)CC(=O)N[C@@H](Cc2csc3ccccc23)C(=O)N[C@@H](Cc2ccc(O)cc2)C(=O)N[C@@H](CC(C)C)C(=O)N[C@H](C(=O)NCC(N)=O)CSCC(=O)N[C@@H](Cc2cccc(Cl)c2)C(=O)N(C)[C@@H](Cc2ccccc2)C(=O)N1C [Example 3118] ({CH2CO}-[Phe(3-Cl)][NMeF][NMeNle][Sar]DV[NMeF][Phe(4-CH2NH2)][Sar][Bta]YLCG-NH2; thioether N-13)
15 | 6.76 to 30.3 nM | 4.78 to 72.9 nM | CCCC[C@H]1C(=O)N(C)CC(=O)N[C@@H](CC(=O)O)C(=O)N[C@@H](C(C)C)C(=O)N(C)[C@@H](Cc2ccccc2)C(=O)N[C@@H](Cc2ccc(CN)cc2)C(=O)N(C)CC(=O)N[C@@H](Cc2csc3ccccc23)C(=O)N[C@@H](Cc2ccc(O)cc2)C(=O)N[C@@H](CC(C)C)C(=O)N[C@H](C(=O)NCC(N)=O)CSCC(=O)N[C@@H](Cc2ccc(Cl)cc2)C(=O)N(C)[C@@H](Cc2ccccc2)C(=O)N1C [Example 3119] ({CH2CO}-[Phe(4-Cl)][NMeF][NMeNle][Sar]DV[NMeF][Phe(4-CH2NH2)][Sar][Bta]YLCG-NH2; thioether N-13)
